Where two headings read alike, the source gives them in different places.
Tests used:
Assay type in all cases: biochemical
PDE1A = PDE1A (Homo sapiens (Human), UniProt P54750); test: biochemical
Excerpt: (§1) Table 1 lists the IC50 value for inhibition of PDE1 by the compounds of the invention. […] PDE1 assays are described in the Experimental Section.

PDE1C = PDE1C (Homo sapiens (Human), UniProt Q14123); test: biochemical
Excerpt: as §1

PDE1B = PDE1B (Homo sapiens (Human), UniProt Q01064); test: PDE1 inhibition assay (PDE1B); settings: 15 nM tritium labelled cAMP, 1 hr at room temperature, SPA beads
Excerpt: as §1

[1] = 15 nM tritium labelled cAMP, 1 hr at room temperature, SPA beads

Chain of PDE1A (P54750 whole entry): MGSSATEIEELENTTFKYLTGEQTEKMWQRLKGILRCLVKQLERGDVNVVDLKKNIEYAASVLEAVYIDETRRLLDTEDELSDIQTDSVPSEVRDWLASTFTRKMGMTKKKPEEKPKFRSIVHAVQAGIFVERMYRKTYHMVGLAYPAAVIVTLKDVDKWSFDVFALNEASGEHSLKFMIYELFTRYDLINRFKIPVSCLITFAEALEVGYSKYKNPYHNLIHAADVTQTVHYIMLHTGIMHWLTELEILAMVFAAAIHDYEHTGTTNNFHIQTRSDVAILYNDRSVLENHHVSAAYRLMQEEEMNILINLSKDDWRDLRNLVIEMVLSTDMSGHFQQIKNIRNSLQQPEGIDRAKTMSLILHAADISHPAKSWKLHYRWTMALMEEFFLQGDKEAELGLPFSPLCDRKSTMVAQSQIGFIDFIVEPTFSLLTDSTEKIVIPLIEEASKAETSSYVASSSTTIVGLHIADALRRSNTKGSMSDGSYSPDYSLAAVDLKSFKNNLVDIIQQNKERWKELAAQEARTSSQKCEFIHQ
Chain of PDE1B (Q01064 whole entry): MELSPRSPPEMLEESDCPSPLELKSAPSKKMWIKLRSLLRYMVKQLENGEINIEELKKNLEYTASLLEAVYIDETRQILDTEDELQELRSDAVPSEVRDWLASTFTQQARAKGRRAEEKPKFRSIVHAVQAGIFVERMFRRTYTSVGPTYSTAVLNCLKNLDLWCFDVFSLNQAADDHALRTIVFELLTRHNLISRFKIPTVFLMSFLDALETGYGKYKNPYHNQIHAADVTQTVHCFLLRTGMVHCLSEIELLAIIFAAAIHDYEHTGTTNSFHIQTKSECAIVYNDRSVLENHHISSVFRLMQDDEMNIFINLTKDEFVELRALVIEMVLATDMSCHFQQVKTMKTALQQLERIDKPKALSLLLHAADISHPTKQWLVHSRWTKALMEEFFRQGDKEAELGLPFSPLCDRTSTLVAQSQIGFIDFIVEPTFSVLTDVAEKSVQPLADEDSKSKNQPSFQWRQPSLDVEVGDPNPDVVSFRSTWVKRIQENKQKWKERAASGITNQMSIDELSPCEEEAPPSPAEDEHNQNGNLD
Chain of PDE1C (Q14123 whole entry): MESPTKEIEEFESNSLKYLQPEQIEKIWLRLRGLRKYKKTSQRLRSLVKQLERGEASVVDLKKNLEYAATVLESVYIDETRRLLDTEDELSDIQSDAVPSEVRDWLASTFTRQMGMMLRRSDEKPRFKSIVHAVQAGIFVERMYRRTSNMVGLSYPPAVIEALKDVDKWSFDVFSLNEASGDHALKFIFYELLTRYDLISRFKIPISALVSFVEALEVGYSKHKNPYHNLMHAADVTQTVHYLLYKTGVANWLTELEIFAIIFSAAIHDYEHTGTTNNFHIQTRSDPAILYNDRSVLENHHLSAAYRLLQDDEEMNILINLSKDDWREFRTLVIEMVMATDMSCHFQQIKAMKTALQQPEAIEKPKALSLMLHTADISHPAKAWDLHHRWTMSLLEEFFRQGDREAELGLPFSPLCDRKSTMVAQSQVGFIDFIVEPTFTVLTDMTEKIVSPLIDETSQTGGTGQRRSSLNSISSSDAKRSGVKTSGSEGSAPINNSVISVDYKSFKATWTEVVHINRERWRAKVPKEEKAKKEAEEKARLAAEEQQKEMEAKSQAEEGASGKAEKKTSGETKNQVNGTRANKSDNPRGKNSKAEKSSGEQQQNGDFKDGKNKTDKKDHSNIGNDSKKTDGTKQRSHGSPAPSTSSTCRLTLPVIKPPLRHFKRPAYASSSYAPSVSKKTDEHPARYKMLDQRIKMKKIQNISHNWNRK

SMILES	IC50 (PDE1A; [1])	IC50 (PDE1C; [1])	IC50 (PDE1B; read-out: PDE1B, IC50)	IC50 (PDE1C)	IC50 (PDE1B; PDE1B, IC50 (nM))	IC50 (PDE1A)
Cc1nn(C(C)C)c2c(NCc3cnn(C)c3)cc(N3CCN(C(C)(C)C)C3=O)nc12 [Example 153, 1-tert-butyl-3-[1-isopropyl-3-methyl-7-[(1-methylpyrazol-4-yl)methylamino]pyrazolo[4,3-b]pyridin-5-yl]imidazolidin-2-one]	130 nM	270 nM	76 nM			
CCOc1ncccc1-c1cc(NCc2nccn2C)c2c(cnn2C(C)C)n1 [Example 17, 5-(2-ethoxy-3-pyridyl)-1-isopropyl-N-[(1-methylimidazol-2-yl)methyl]pyrazolo[4,3-b]pyridin-7-amine]	700 nM	970 nM	54 nM			
CCOc1ncccc1-c1cc(NCc2ccc(C)s2)c2c(n1)c(C)nn2C(C)C [Example 36, 5-(2-ethoxy-3-pyridyl)-1-isopropyl-3-methyl-N-[(5-methyl-2-thienyl)methyl]pyrazolo[4,3-b]pyridin-7-amine]	24 nM	41 nM	5.2 nM			
CCOc1ncccc1-c1cc(NCc2ccccc2)c2c(cnn2C(C)C)n1 [Example 41, N-benzyl-5-(2-ethoxy-3-pyridyl)-1-isopropyl-pyrazolo[4,3-b]pyridin-7-amine]	500 nM	500 nM	45 nM			
CCOc1ncccc1-c1cc(NCc2ccnc(C)n2)c2c(n1)c(C)nn2C(C)C [Example 105, 5-(2-ethoxy-3-pyridyl)-1-isopropyl-3-methyl-N-[(2-methylpyrimidin-4-yl)methyl]pyrazolo[4,3-b]pyridin-7-amine]	54 nM	150 nM	12 nM			
COc1ncccc1CNc1cc(-c2ccc[nH]c2=O)nc2c(C)nn(C(C)C)c12 [Example 171, 3-[1-isopropyl-7-[(2-methoxy-3-pyridyl)methylamino]-3-methyl-pyrazolo[4,3-b]pyridin-5-yl]-1H-pyridin-2-one]	290 nM	420 nM	47 nM			
CCOc1ncccc1-c1cc(NCc2nnc(C)o2)c2c(cnn2C(C)CC)n1 (single isomer, unassigned) [Example 138, 5-(2-ethoxy-3-pyridyl)-N-[(5-methyl-1,3,4-oxadiazol-2-yl)methyl]-1-[1-methylpropyl]pyrazolo[4,3-b]pyridin-7-amine]	93 nM			180 nM	6.8 nM	
CCOc1ncccc1-c1cc(NCc2cc[nH]n2)c2c(cnn2C(C)CC)n1 (single isomer, unassigned) [Example 136, 5-(2-ethoxy-3-pyridyl)-1-[1-methylpropyl]-N-(1H-pyrazol-3-ylmethyl)pyrazolo[4,3-b]pyridin-7-amine]	62 nM			100 nM	3.2 nM	
Cc1nn(C(C)C)c2c(NCc3ncn(C)n3)cc(-c3ccc[nH]c3=O)nc12 [Example 186, 3-[1-isopropyl-3-methyl-7-[(1-methyl-1,2,4-triazol-3-yl)methylamino]pyrazolo[4,3-b]pyridin-5-yl]-1H-pyridin-2-one]	64 nM	130 nM	15 nM			
CCOc1ncccc1-c1cc(NCc2cccnc2C)c2c(n1)c(C)nn2C(C)C [Example 84, 5-(2-ethoxy-3-pyridyl)-1-isopropyl-3-methyl-N-[(2-methyl-3-pyridyl)methyl]pyrazolo[4,3-b]pyridin-7-amine]	19 nM	23 nM	1.8 nM			
CCOc1ncccc1-c1cc(NCc2cccnc2)c2c(n1)c(C)nn2C(C)C [Example 115, 5-(2-ethoxy-3-pyridyl)-1-isopropyl-3-methyl-N-(3-pyridylmethyl)pyrazolo[4,3-b]pyridin-7-amine]	15 nM	31 nM	2 nM			
CCCOc1ncccc1-c1cc(NCc2nc[nH]n2)c2c(n1)c(C)nn2C(C)C [Example 146, 1-isopropyl-3-methyl-5-(2-propoxy-3-pyridyl)-N-(1H-1,2,4-triazol-3-ylmethyl)pyrazolo[4,3-b]pyridin-7-amine]	3.9 nM	14 nM	0.51 nM			
CCOc1ncccc1CNc1cc(-c2cccnc2OCC)nc2c(C)nn(C(C)C)c12 [Example 191, 5-(2-ethoxy-3-pyridyl)-N-[(2-ethoxy-3-pyridyl)methyl]-1-isopropyl-3-methyl-pyrazolo[4,3-b]pyridin-7-amine]	160 nM	400 nM	10 nM			
CCOc1ncccc1-c1cc(NCc2ccnc(C)c2)c2c(n1)c(C)nn2C(C)C [Example 103, 5-(2-ethoxy-3-pyridyl)-1-isopropyl-3-methyl-N-[(2-methyl-4-pyridyl)methyl]pyrazolo[4,3-b]pyridin-7-amine]	5.4 nM	17 nM	2.9 nM			
COc1ccc(CNc2cc(-c3cccnc3N(C)C)nc3c(C)nn(C(C)C)c23)cc1 [Example 192, 5-[2-(dimethylamino)-3-pyridyl]-1-isopropyl-N-[(4-methoxyphenyl)methyl]-3-methyl-pyrazolo[4,3-b]pyridin-7-amine]	630 nM	490 nM	71 nM			
CCOc1ncccc1-c1cc(NCc2cnn(C)c2)c2c(cnn2C)n1 [Example 16, 5-(2-ethoxypyridin-3-yl)-1-methyl-N-((1-methyl-1H-pyrazol-4-yl)methyl)-1H-pyrazolo[4,3-b]pyridin-7-amine]	670 nM	1800 nM	92 nM			
CCOc1ncccc1-c1cc(NCc2scnc2C)c2c(cnn2C(C)C)n1 [Example 71, 5-(2-ethoxy-3-pyridyl)-1-isopropyl-N-[(4-methylthiazol-5-yl)methyl]pyrazolo[4,3-b]pyridin-7-amine]				180 nM	18 nM	170 nM
Cc1nn(C(C)C)c2c(NCc3cnn(C)c3)cc(N3CCOC3=O)nc12 [Example 151, 3-[1-isopropyl-3-methyl-7-[(1-methylpyrazol-4-yl)methylamino]pyrazolo[4,3-b]pyridin-5-yl]oxazolidin-2-one]	10 nM	12 nM	4.7 nM			
CCOc1ncccc1-c1cc(NCc2ncccc2OC)c2c(n1)c(C)nn2C(C)C [Example 118, 5-(2-ethoxy-3-pyridyl)-1-isopropyl-N-[(3-methoxy-2-pyridyl)methyl]-3-methyl-pyrazolo[4,3-b]pyridin-7-amine]	13 nM	88 nM	0.42 nM			
CCOc1ncccc1-c1cc(NCc2cn(C)cn2)c2c(cnn2C(C)C)n1 [Example 21, 5-(2-ethoxy-3-pyridyl)-1-isopropyl-N-[(1-methylimidazol-4-yl)methyl]pyrazolo[4,3-b]pyridin-7-amine]	8.9 nM	29 nM	0.44 nM			
CCOc1ncccc1-c1cc(NCc2ncn(C)n2)c2c(n1)c(C)nn2C1COC1 [Example 163, 5-(2-ethoxy-3-pyridyl)-3-methyl-N-[(1-methyl-1,2,4-triazol-3-yl)methyl]-1-(oxetan-3-yl)pyrazolo[4,3-b]pyridin-7-amine]	120 nM	120 nM	14 nM			
CCOc1ncccc1-c1cc(NCc2cnn(C)c2)c2c(n1)c(C)nn2C1CC1 [Example 12, 1-cyclopropyl-5-(2-ethoxy-3-pyridyl)-3-methyl-N-[(1-methylpyrazol-4-yl)methyl]pyrazolo[4,3-b]pyridin-7-amine]	200 nM	690 nM	60 nM			
CCOc1ncccc1-c1cc(NCc2ccccn2)c2c(n1)c(C)nn2C(C)C [Example 100, 5-(2-ethoxy-3-pyridyl)-1-isopropyl-3-methyl-N-(2-pyridylmethyl)pyrazolo[4,3-b]pyridin-7-amine]	6.3 nM	21 nM	0.39 nM			
CCOc1ncccc1-c1cc(NCc2c[nH]cn2)c2c(n1)c(C)nn2C(C)CC (single isomer, unassigned) [Example 130, 5-(2-ethoxy-3-pyridyl)-N-(1H-imidazol-4-ylmethyl)-3-methyl-1-[1-methylpropyl]pyrazolo[4,3-b]pyridin-7-amine]	11 nM	25 nM			0.86 nM	
CCOc1ncccc1-c1cc(NCc2ncn(C)n2)c2c(cnn2C(C)CC)n1 (single isomer, unassigned) [Example 140, 5-(2-ethoxy-3-pyridyl)-1-[1-methylpropyl]-N-[(1-methyl-1,2,4-triazol-3-yl)methyl]pyrazolo[4,3-b]pyridin-7-amine]	32 nM			52 nM	1.7 nM	
CCOc1ncccc1-c1cc(NCc2cccc(OC)n2)c2c(n1)c(C)nn2C(C)C [Example 102, 5-(2-ethoxy-3-pyridyl)-1-isopropyl-N-[(6-methoxy-2-pyridyl)methyl]-3-methyl-pyrazolo[4,3-b]pyridin-7-amine]	8 nM	34 nM	0.73 nM			
CCOc1ncccc1-c1cc(NCc2cnn(C)c2)c2c(n1)c(C)nn2C [Example 28, 5-(2-ethoxy-3-pyridyl)-1,3-dimethyl-N-[(1-methylpyrazol-4-yl)methyl]pyrazolo[4,3-b]pyridin-7-amine]	550 nM	1900 nM	85 nM			
COc1ccccc1-c1cc(NCc2cnn(C)c2)c2c(n1)c(C)nn2C(C)C [Example 63, 1-isopropyl-5-(2-methoxyphenyl)-3-methyl-N-[(1-methylpyrazol-4-yl)methyl]pyrazolo[4,3-b]pyridin-7-amine]	64 nM	20 nM	9.4 nM			
Cc1ncoc1-c1cc(NCc2cnn(C)c2)c2c(n1)c(C)nn2C(C)C [Example 200, 1-isopropyl-3-methyl-N-((1-methyl-1H-pyrazol-4-yl)methyl)-5-(4-methyloxazol-5-yl)-1H-pyrazolo[4,3-b]pyridin-7-amine]	98 nM	110 nM	18 nM			

From patent publication US10034861B2 (priority 2016, dated 2018)
